{"source": "patent US20050054103A1", "about": "“Expansion of renewable stem cell populations using modulators of PI 3-kinase” (priority 2003, published 2005)", "key": {"[1]": {"system": "Lin− c-kit+ Sca-1+ murine hematopoietic precursors", "details": "cultured 7 days; cited from earlier work"}, "CD34+ cells": {"system": "CD34+ cells", "experiment": "Ex vivo expansion of CD34+ cells with the PI 3-kinase inhibitor Ly294002", "format": "cell-based, human", "description": "Mononuclear cell fraction collection and purification: Human blood cells were obtained from umbilical cord blood from female patients following full-term, normal delivery (informed consent was obtained). Samples were collected and processed within 12 hours postpartum. […] Louis, Mo.), sedimented for 30 minutes to remove most red blood cells. The leukocyte-rich fraction was harvested and layered on a Ficoll-Hypaque gradient (1.077 gram/ml; Sigma), and centrifuged at 400 g for 30 minutes. […] Sigma, St. Louis, Mo.). Purification of CD34^+ cells from mononuclear cell fractions: To purify CD34^+ mononuclear cells, the mononuclear cell fraction was subjected to two cycles of immuno-magnetic separation using the MiniMACS® or […]® CD34 Progenitor Cell Isolation Kit (Miltenyi Biotec, Auburn, Calif.) as per manufacturer's recommendations. The purity of the CD34^+ population obtained ranged from 95% to 98%, as determined by flow cytometry (see below). Ex vivo expansion: Purified CD34+ cells were cultured in culture bags (American Fluoroseal Co. Gaithersburg, Md., USA) at a concentration of 1×10^4 cells/ml in MEMα/10% FCS containing the following human recombinant cytokines: […] The cultures were replenished weekly, for three weeks, with the same volume of fresh medium, Ly294002 and growth factors. From week three and up to the termination of the experiments the cultures were weekly demi-depopulated. Cells were counted following staining with trypan blue. At various time points, harvested cells were used to assay the content of colony forming units in culture (CFUc), enumeration of CD34+ cells following re-selection and immunophenotype analysis. Cell morphology was determined on cytospin (Shandon, Pittsburgh, Pa., USA) prepared smears stained with May-Grunwald/Giemsa solutions. Surface antigen analysis: The cells were washed with a PBS solution containing 1% BSA, and stained (at 4° C. for 30 min) with fluorescein isothiocyanate (FITC)- or phycoerythrin (PE)-conjugated antibodies. The cells were then washed in the above buffer and analyzed using a FACScalibur® flow cytometer (Becton Dickinson, San Jose, Calif., USA). The cells were passed at a rate of up to 1000 cells/second, using a 488 nm argon laser beam as the light source for excitation. Emission of 10^4 cells was measured using logarithmic amplification, and analyzed using the CellQuest software (Becton Dickinson). Determination of CD34+ cell content after expansion: The content of CD34+ cells was determined from a purified, re-selected fraction of expanded hematopoietic progenitor cells, using the MiniMACS CD34 progenitor cell isolation kit (Miltenyi Biotec) according to the manufacturers recommendations. In brief, mononuclear cells derived from one portion of the culture were subjected to two cycles of immunomagnetic bead separation. The purity of the CD34+ population thus obtained was 95-98%, as evaluated by flow cytometry. CD34+ cell content of the entire culture was calculated as follows: number of CD34+ cells recovered following repurification after expansion multiplied by the culture volume/volume of the portion of the culture subjected to repurification (CD34+total=CD34+ in sample×total culture volume/volume of repurified sample). Up to week three the cultures were topped weekly with fresh medium. Therefore, the culture volume was measured directly. From week three and on (due to demi-depopulation), the culture volume was calculating by multiplying the actual volume with the number of passages. Fold expansion was calculated by dividing the CD34+ cell content of the culture by the number of inoculated CD34+ cells (Fold expansion=total CD34+ content/CD34+ inoculated). […] Determination of early CD34+ cell subsets: The percentages of the early CD34+ cell subsets were determined as well from the re-purified CD34+ cell fraction. […]"}, "[2]": {"details": "cited from earlier work"}, "CD34 cells": {"system": "CD34 cells", "experiment": "Transition metal chelators in CD34+ cell liquid cultures (cell number, CD34 cells, clonability)", "format": "cell-based, human", "description": "The interphase layer of mononuclear cells were collected, washed three times with Ca/Mg free phosphate buffered saline containing 1% bovine serum albumin (BSA). The cells were incubated for 30 min. at 4° C. with murine monoclonal anti CD34 antibody (0.5 μg/10^6 mononuclear cells) and thereafter isolated using the miniMACS apparatus (Miltenyi-Biotec, Bergisch, Gladbach, Germany) according to the manufacturer's protocol.\nCulture procedures: For the expansion of progenitor cells, CD34^+ enriched fractions or unseparated mononuclear cells were seeded at about 1-3×10^4 cells/ml in either alpha minimal essential medium containing 10% preselected fetal calf serum (FCS) (both from GIBCO, Grand Island, N.Y.), or serum-free medium (Progenitor-34 medium, Life Technologies, Grand Island, N.Y.). The media were supplemented with a mixture of growth factors and transition metal chelators. The cultures were incubated at 37° C. in an atmosphere of 5% CO2 in air with extra humidity. Half of the medium was changed weekly with fresh medium containing all the supplements.\nCloning potential evaluations: The cloning potential of cells developed in the liquid culture was assayed, at different intervals, in semi-solid medium. The cells were washed and seeded in 35 mm dishes in methylcellulose containing alpha medium supplemented with recombinant growth factors (SCF, G-CSF, GM-CSF and EPO). Following 2 weeks incubation, the cultures were scored with an inverted microscope. Colonies were classified as blast, mixed, erythroid, myeloid, and megakaryocytic, according to their cellular composition.\nMorphological assessment: In order to characterize the resulting culture populations, aliquots of cells were deposited on a glass slide (cytocentrifuge, Shandon, Runcorn, UK), fixed and stained in May-Grunwald Giemsa. Other aliquots were stained by benzidine for intracellular hemoglobin.\nImmunofluorescence staining: At different intervals, cells from the liquid cultures were assayed for CD34 antigen. Aliquots were harvested, washed and incubated on ice with FITC-labeled anti CD45 monoclonal antibody and either PE-labeled anti CD34 (HPCA-2) monoclonal antibody or PE-labeled control mouse Ig. After incubation, red cells were lysed with lysing solution, while the remaining cells were washed and analyzed by flow cytometer.\nFlow cytometry: Cells were analyzed and sorted using FACStar^plus flow cytometer (Becton-Dickinson, Immunofluorometry systems, Mountain View, Calif.). Cells were passed at a rate of 1,000 cells/second through a […] nozzle, using saline as the sheath fluid. […] The PMTs was set at the appropriate voltage. Logarithmic amplification was applied for measurements of fluorescence and linear amplification—for forward light scatter. At least 10^4 cells were analyzed.\nCord blood-derived CD34 cells were plated in liquid culture in the presence of: FL—50 ng/ml, SCF—50 ng/ml, IL-6—50 ng/ml, with or without IL-3—20 ng/ml, with or without TEPA—10 μM. On day 7, the percentage of CD34 cells and the total cell number were determined. Aliquots equivalent to 1×10^3 initiating cells were assayed on days 0 and 7 for colony forming cells (CFU) by cloning in semi-solid medium. CFU expansion represents the ratio of CFU present on day 7 to CFU present on day 0.\nCD34^+ cells derived from human neonatal cord blood were purified by immunomagnetic method and then cultured in liquid medium supplemented with cytokines either with or without transition metal chelators. At weekly intervals, the cultures were demi-depopulated by removing half of the culture content (supernatant and cells) and replacing it with fresh medium, cytokines and the chelators. At the indicated weeks the cellular content of the cultures were quantified for total cells (by a manual microscopic/hemocytometric method), for CD34^+ cells (by immuno-flow cytometry) and for clonogenic cells (by cloning the cells in cytokine-supplemented semi-solid medium)."}, "[3]": {"system": "HL-60 (human myeloid leukemia cell line)", "experiment": "Inhibition / induction of differentiation and growth inhibition of HL-60 cells by chelators", "format": "cell-based", "details": "1000 nM", "excerpt": "(§1) FIG. 44 provides the chemical structure of the various chelators employed in these experiments."}, "HL-60 cells": {"system": "HL-60 cells", "experiment": "Copper determination in chelator treated cells (atomic absorption)", "format": "cell-based, human", "description": "Copper Determination: Cells were harvested by centrifugation at 1000×g for 5 minutes. The cell pellet was washed three times by re-suspending the cells in PBS (Ca^++ and Mg^++ free) and centrifugation at 1000×g. An aliquot containing 2×10^6 cells was then transferred into a metal-free Eppendorf tube and the cells were recovered by centrifugation at 1000×g. The cell pellet was re-suspended in 0.03 M ultra-pure nitric acid to give a concentration of 1×10^7 cells/ml. The cells were homogenized with a high shear mixer (polytron, Kinematica, Switzerland) for 1 minutes to disrupt the cell and release intracellular copper content. Cell samples were vortexed before transferring to a vial autosampler and analyzed in duplicate by a Perkin Elmer graphite furnace atomic absorption spectrophotometer at a wavelength of 324.7 nm. The samples were analyzed against copper standard solution prepared from a commercial stock solution that was diluted with 0.03 M ultra pure nitric acid.\nas §1"}, "[4]": {"system": "cord blood-derived CD34+ cells", "experiment": "Copper-chelating peptides in CD34 cell cultures (proliferation, clonability)", "format": "cell-based, human", "details": "after 7 weeks; peptides 10 μM each, G-CSF and GM-CSF 10 ng/ml each", "description": "CD34 cells selection: Peripheral blood “buffy coat” cells derived from a whole blood unit, peripheral blood cells obtained following leukapheresis, or blood cells were layered on Ficoll-Hypaque (density 1.077 g/ml) and centrifuged at 1,000×g for 20 minutes at room temperature. The interphase layer of mononuclear cells were collected, washed three times with Ca/Mg free phosphate buffered saline containing 1% bovine serum albumin (BSA). The cells were incubated for 30 minutes at 4° C. with murine monoclonal anti CD34 antibody (0.5 μg/10^6 […] cells) and thereafter isolated using the miniMACA apparatus (Miltenyi-Biotec, Bergisch, Gladbach, Germany) according to the manufacturer's protocol.\nCulture procedures: For the expansion of progenitor cells, CD34^+ enriched fractions were seeded at 1×10^4 cells/ml in alpha minimal essential medium containing 10% preselected fetal calf serum (FCS) (both from GIBCO, Grand Island, N.Y.). The medium was supplemented with a mixture of growth factors and Copper chelators. The cultures were incubated at 37° C. in an atmosphere of 5% CO2 in air with extra humidity. Half of the medium was changed weekly with fresh medium containing all the supplements.\nThe cloning potential of the cultured cells was assayed in semi-solid medium. The cells were washed and seeded in 35 mm dishes in methylcellulose containing alpha medium supplemented with 30% FCS and further with recombinant growth factors (stem cell factor (SCF), G-CSF, GM-CSF and erythropoietin (EPO)). Following two week incubation, the cultures were scored with an inverted microscope. Colonies were classified as blast, mixed, erythroid, myeloid, and megakaryocytic, according to their cellular composition.\nThe effect of Copper-chelating peptides on proliferation and clonability in CD34 cell cultures: Cultures were initiated with 10^4 cord blood-derived CD34^+ cells by plating purified cells in liquid medium in the presence of SCF, FLT3 and IL-6 (50 ng/ml each) and the Copper-binding peptides, Gly-Gly-His (GGH) or Gly-His-Lys (GHL) (10 μM each), or the late-acting cytokines G-CSF and GM-CSF (10 ng/ml each). At weekly intervals, the cultures were demi-depopulated and supplemented with fresh medium, cytokines and the peptides. After 7 weeks, cells were counted and assayed for CFUc."}, "[5]": {"details": "Cytokines + Ly294002, two weeks"}, "[6]": {"details": "Cytokines + Ly294002, two weeks, percentage of re-purified CD34+ cells"}}}
{"molecule": "Cc1ccc(C2=CCC(C)(C)c3ccc(C#Cc4ccc(C(=O)O)cc4)cc32)cc1", "note": "[AGN 193109]", "values": [{"measurement": "increase in the pre-CFU-S population", "setting": "[1]", "value": "approximately 6 fold"}]}
{"molecule": "O=c1cc(N2CCOCC2)oc2c(-c3ccccc3)cccc12", "note": "[LY294002]", "values": [{"measurement": "CD34 + CD38- ×10^4", "setting": "CD34+ cells; [5]", "value": "4.8 ×10^4"}, {"measurement": "CD34 + Lin- ×10^4", "setting": "CD34+ cells; [5]", "value": "1.3 ×10^4"}, {"measurement": "CD34 × 10^4", "setting": "CD34+ cells; [5]", "value": "53 × 10^4"}, {"measurement": "TNC × 10^4", "setting": "CD34+ cells; [5]", "value": "155 × 10^4"}, {"measurement": "CD34 + CD38- (%)", "setting": "CD34+ cells; [6]", "value": 9.1, "unit": "%"}, {"measurement": "CD34 + Lin- (%)", "setting": "CD34+ cells; [6]", "value": 2.5, "unit": "%"}, {"measurement": "absolute content of CD34+CD38− cells", "setting": "CD34+ cells; two weeks", "value": "9×10^4 cells"}, {"measurement": "absolute content of CD34+CD38−Lin− cells", "setting": "CD34+ cells; two weeks", "value": "2.5×10^4 cells"}, {"measurement": "content of late progenitor, CD34+ cells", "setting": "CD34+ cells; two weeks, treated cultures", "value": "65×10^4 cells"}, {"measurement": "frequency of CD34+ cells among the total cultured cells", "setting": "CD34+ cells; two-weeks treatment", "value": 0.3}, {"measurement": "membrane permeability", "setting": "[2]", "value": "membrane permeable"}]}
{"molecule": "C1CNCCNCCNCCN1", "note": "[1,4,7,10-Tetraaza cyclododecane]", "values": [{"measurement": "effect on differentiation of CD34+ cells", "setting": "CD34 cells", "value": "stimulate differentiation"}, {"measurement": "Differentiation Induction", "setting": "[3]", "value": "Toxic"}, {"measurement": "Average Intracellular ppb Cu", "setting": "HL-60 cells; 20 μM chelator", "value": 27.5, "unit": "ppb"}, {"measurement": "Average Intracellular ppb Cu", "setting": "HL-60 cells; 100 μM chelator", "value": 73.9, "unit": "ppb"}, {"measurement": "Average Intracellular ppb Cu", "setting": "HL-60 cells; 500 μM chelator", "value": "Toxic"}, {"measurement": "activity at 20 µM", "setting": "HL-60 cells; Homo sapiens, HL-60, 20 μM chelator, read-out: Average Intracellular Cu (% of control)", "value": 56, "unit": "%"}, {"measurement": "activity at 100 µM", "setting": "HL-60 cells; Homo sapiens, HL-60, 100 μM chelator, read-out: Average Intracellular Cu (% of control)", "value": 150, "unit": "%"}]}
{"molecule": "Gly-His-Lys [GHL]", "values": [{"measurement": "effect on differentiation of CD34+ cells", "setting": "CD34 cells", "value": "stimulate differentiation"}, {"measurement": "decrease of cell number", "setting": "[4]", "value": 25, "unit": "%"}, {"measurement": "decrease of clonogenic potential (CFUc)", "setting": "[4]", "value": 78, "unit": "%"}]}
{"molecule": "Gly-Gly-His [GGH]", "values": [{"measurement": "effect on differentiation of CD34+ cells", "setting": "CD34 cells", "value": "stimulate differentiation"}, {"measurement": "decrease of cell number", "setting": "[4]", "value": 10, "unit": "%"}, {"measurement": "decrease of clonogenic potential (CFUc)", "setting": "[4]", "value": 80, "unit": "%"}]}
